Data taken from publication PMC12282105 (RSC Advances, 2025).

Target: SARS-CoV-2 main protease (M^pro or 3CL^pro) (Severe acute respiratory syndrome coronavirus 2, UniProt P0DTD1)
Experiment: Fluorogenic substrate assay of SARS-CoV-2 main protease
Format: biochemical
Conditions: compound 9 relative to compound 8

## O=c1cc(-c2ccc(O)cc2)oc2cc(O[C@@H]3O[C@H](CO)[C@@H](O)[C@H](O)[C@H]3O)cc(O)c12 [Compound 9, apigenin-7-O-β-D-glucopyranoside]
  improvement in protease inhibitory activity: 15 fold
